{"source": "the supplement of paper PMC10307832", "test_in_all_cases": "relative viability (nuclei count vs DMSO), 5 days (fraction); higher = more cells survive", "key": {"NCI-H2087": {"tested_on": "NCI-H2087", "method_in_brief": "(§1)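 Relative viability divides the nuclei count in treated wells by that in vehicle wells. Lung cancer cell lines were seeded in 1536-well plates, dosed by pin tool the next day, and fixed and stained after 5 days in one step with final 0.05% Triton X-100, 1% formaldehyde and 1 ug/ml Hoechst. Dosing was a single drug or a fixed anchor-drug dose plus five library-drug doses (not always all listed) in √10 steps, and values are medians of duplicate plates imaged at 4×.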"}, "PC-3 [JPC-3]": {"tested_on": "PC-3 [JPC-3]", "method_in_brief": "as §1"}, "H3255": {"tested_on": "H3255", "method_in_brief": "as §1"}, "NCI-H650": {"tested_on": "NCI-H650", "method_in_brief": "as §1"}, "NCI-H647": {"tested_on": "NCI-H647", "method_in_brief": "as §1"}, "NCI-H1666": {"tested_on": "NCI-H1666", "method_in_brief": "as §1"}, "NCI-H2085": {"tested_on": "NCI-H2085", "method_in_brief": "as §1"}, "COR-L 105": {"tested_on": "COR-L 105", "method_in_brief": "as §1"}, "LOU-NH91": {"tested_on": "LOU-NH91", "method_in_brief": "as §1"}, "LCLC-97TM1": {"tested_on": "LCLC-97TM1", "method_in_brief": "as §1"}, "LU99A": {"tested_on": "LU99A", "method_in_brief": "as §1"}, "SW 1573": {"tested_on": "SW 1573", "method_in_brief": "as §1"}, "201T": {"tested_on": "201T", "method_in_brief": "as §1"}, "EPLC-272H": {"tested_on": "EPLC-272H", "method_in_brief": "as §1"}, "EKVX": {"tested_on": "EKVX", "method_in_brief": "as §1"}, "BEN": {"tested_on": "BEN", "method_in_brief": "as §1"}, "HCC-827": {"tested_on": "HCC-827", "method_in_brief": "as §1"}, "NCI-H1437": {"tested_on": "NCI-H1437", "method_in_brief": "as §1"}, "HCC-44": {"tested_on": "HCC-44", "method_in_brief": "as §1"}, "NCI-H1975": {"tested_on": "NCI-H1975", "method_in_brief": "as §1"}}, "data": [{"molecule": "CCN(CC)CCCCNc1ncc2cc(-c3cc(OC)cc(OC)c3)c(NC(=O)NC(C)(C)C)nc2n1", "note": "+ CC(C)C[C@H](NC(=O)[C@H](Cc1ccccc1)NC(=O)c1cnccn1)B(O)O [Bortezomib] (partner 0.002 µM)", "values": [{"measurement": "relative viability", "setting": "NCI-H2087; first compound 0.01 µM", "value": 0.85}, {"measurement": "relative viability", "setting": "NCI-H2087; first compound 0.03162 µM", "value": 0.909}, {"measurement": "relative viability", "setting": "NCI-H2087; first compound 0.1 µM", "value": 1.08}, {"measurement": "relative viability", "setting": "NCI-H2087; first compound 0.3162 µM", "value": 1.04}, {"measurement": "relative viability", "setting": "NCI-H2087; first compound 1 µM", "value": 0.689}, {"measurement": "relative viability", "setting": "PC-3 [JPC-3]; first compound 0.01 µM", "value": 0.895}, {"measurement": "relative viability", "setting": "PC-3 [JPC-3]; first compound 0.03162 µM", "value": 0.862}, {"measurement": "relative viability", "setting": "PC-3 [JPC-3]; first compound 0.1 µM", "value": 0.972}, {"measurement": "relative viability", "setting": "PC-3 [JPC-3]; first compound 0.3162 µM", "value": 0.966}, {"measurement": "relative viability", "setting": "PC-3 [JPC-3]; first compound 1 µM", "value": 0.939}, {"measurement": "relative viability", "setting": "H3255; first compound 0.01 µM", "value": 0.762}, {"measurement": "relative viability", "setting": "H3255; first compound 0.03162 µM", "value": 0.773}, {"measurement": "relative viability", "setting": "H3255; first compound 0.1 µM", "value": 1.02}, {"measurement": "relative viability", "setting": "H3255; first compound 0.3162 µM", "value": 1.21}, {"measurement": "relative viability", "setting": "H3255; first compound 1 µM", "value": 0.656}, {"measurement": "relative viability", "setting": "NCI-H650; first compound 0.01 µM", "value": 0.701}, {"measurement": "relative viability", "setting": "NCI-H650; first compound 0.03162 µM", "value": 0.787}, {"measurement": "relative viability", "setting": "NCI-H650; first compound 0.1 µM", "value": 1.1}, {"measurement": "relative viability", "setting": "NCI-H650; first compound 0.3162 µM", "value": 0.921}, {"measurement": "relative viability", "setting": "NCI-H650; first compound 1 µM", "value": 0.678}, {"measurement": "relative viability", "setting": "NCI-H647; first compound 0.01 µM", "value": 1.02}, {"measurement": "relative viability", "setting": "NCI-H647; first compound 0.03162 µM", "value": 0.996}, {"measurement": "relative viability", "setting": "NCI-H647; first compound 0.1 µM", "value": 1.6}, {"measurement": "relative viability", "setting": "NCI-H647; first compound 0.3162 µM", "value": 1.08}, {"measurement": "relative viability", "setting": "NCI-H647; first compound 1 µM", "value": 1.07}, {"measurement": "relative viability", "setting": "NCI-H1666; first compound 0.01 µM", "value": 0.74}, {"measurement": "relative viability", "setting": "NCI-H1666; first compound 0.03162 µM", "value": 0.848}, {"measurement": "relative viability", "setting": "NCI-H1666; first compound 0.1 µM", "value": 0.837}, {"measurement": "relative viability", "setting": "NCI-H1666; first compound 0.3162 µM", "value": 0.724}, {"measurement": "relative viability", "setting": "NCI-H1666; first compound 1 µM", "value": 0.733}, {"measurement": "relative viability", "setting": "NCI-H2085; first compound 0.01 µM", "value": 0.991}, {"measurement": "relative viability", "setting": "NCI-H2085; first compound 0.03162 µM", "value": 1.03}, {"measurement": "relative viability", "setting": "NCI-H2085; first compound 0.1 µM", "value": 1.09}, {"measurement": "relative viability", "setting": "NCI-H2085; first compound 0.3162 µM", "value": 1.15}, {"measurement": "relative viability", "setting": "NCI-H2085; first compound 1 µM", "value": 0.999}, {"measurement": "relative viability", "setting": "COR-L 105; first compound 0.01 µM", "value": 0.691}, {"measurement": "relative viability", "setting": "COR-L 105; first compound 0.03162 µM", "value": 0.824}, {"measurement": "relative viability", "setting": "COR-L 105; first compound 0.1 µM", "value": 0.859}, {"measurement": "relative viability", "setting": "COR-L 105; first compound 0.3162 µM", "value": 0.968}, {"measurement": "relative viability", "setting": "COR-L 105; first compound 1 µM", "value": 0.732}, {"measurement": "relative viability", "setting": "LOU-NH91; first compound 0.01 µM", "value": 0.531}, {"measurement": "relative viability", "setting": "LOU-NH91; first compound 0.03162 µM", "value": 0.49}, {"measurement": "relative viability", "setting": "LOU-NH91; first compound 0.1 µM", "value": 0.498}, {"measurement": "relative viability", "setting": "LOU-NH91; first compound 0.3162 µM", "value": 0.515}, {"measurement": "relative viability", "setting": "LOU-NH91; first compound 1 µM", "value": 0.424}, {"measurement": "relative viability", "setting": "LCLC-97TM1; first compound 0.01 µM", "value": 0.723}, {"measurement": "relative viability", "setting": "LCLC-97TM1; first compound 0.03162 µM", "value": 0.614}, {"measurement": "relative viability", "setting": "LCLC-97TM1; first compound 0.1 µM", "value": 0.789}, {"measurement": "relative viability", "setting": "LCLC-97TM1; first compound 0.3162 µM", "value": 1.54}, {"measurement": "relative viability", "setting": "LCLC-97TM1; first compound 1 µM", "value": 0.305}, {"measurement": "relative viability", "setting": "LU99A; first compound 0.01 µM", "value": 1.03}, {"measurement": "relative viability", "setting": "LU99A; first compound 0.03162 µM", "value": 1.16}, {"measurement": "relative viability", "setting": "LU99A; first compound 0.1 µM", "value": 1.34}, {"measurement": "relative viability", "setting": "LU99A; first compound 0.3162 µM", "value": 1.23}, {"measurement": "relative viability", "setting": "LU99A; first compound 1 µM", "value": 1.13}, {"measurement": "relative viability", "setting": "SW 1573; first compound 0.01 µM", "value": 1.03}, {"measurement": "relative viability", "setting": "SW 1573; first compound 0.03162 µM", "value": 0.991}, {"measurement": "relative viability", "setting": "SW 1573; first compound 0.1 µM", "value": 1.07}, {"measurement": "relative viability", "setting": "SW 1573; first compound 0.3162 µM", "value": 1.03}, {"measurement": "relative viability", "setting": "SW 1573; first compound 1 µM", "value": 0.936}, {"measurement": "relative viability", "setting": "201T; first compound 0.01 µM", "value": 1.03}, {"measurement": "relative viability", "setting": "201T; first compound 0.03162 µM", "value": 1.14}, {"measurement": "relative viability", "setting": "201T; first compound 0.1 µM", "value": 1.14}, {"measurement": "relative viability", "setting": "201T; first compound 0.3162 µM", "value": 1.15}, {"measurement": "relative viability", "setting": "201T; first compound 1 µM", "value": 0.976}, {"measurement": "relative viability", "setting": "EPLC-272H; first compound 0.01 µM", "value": 1.02}, {"measurement": "relative viability", "setting": "EPLC-272H; first compound 0.1 µM", "value": 0.921}, {"measurement": "relative viability", "setting": "EPLC-272H; first compound 0.3162 µM", "value": 1.03}, {"measurement": "relative viability", "setting": "EPLC-272H; first compound 1 µM", "value": 0.796}, {"measurement": "relative viability", "setting": "EKVX; first compound 0.01 µM", "value": 1.15}, {"measurement": "relative viability", "setting": "EKVX; first compound 0.03162 µM", "value": 0.957}, {"measurement": "relative viability", "setting": "EKVX; first compound 0.1 µM", "value": 1.2}, {"measurement": "relative viability", "setting": "EKVX; first compound 0.3162 µM", "value": 1.21}, {"measurement": "relative viability", "setting": "EKVX; first compound 1 µM", "value": 1.1}, {"measurement": "relative viability", "setting": "BEN; first compound 0.01 µM", "value": 0.819}, {"measurement": "relative viability", "setting": "BEN; first compound 0.03162 µM", "value": 0.528}, {"measurement": "relative viability", "setting": "BEN; first compound 0.1 µM", "value": 1.03}, {"measurement": "relative viability", "setting": "BEN; first compound 0.3162 µM", "value": 0.766}, {"measurement": "relative viability", "setting": "BEN; first compound 1 µM", "value": 0.715}, {"measurement": "relative viability", "setting": "HCC-827; first compound 0.01 µM", "value": 1.07}, {"measurement": "relative viability", "setting": "HCC-827; first compound 0.03162 µM", "value": 1}, {"measurement": "relative viability", "setting": "HCC-827; first compound 0.1 µM", "value": 1.09}, {"measurement": "relative viability", "setting": "HCC-827; first compound 0.3162 µM", "value": 1.04}, {"measurement": "relative viability", "setting": "HCC-827; first compound 1 µM", "value": 1.05}, {"measurement": "relative viability", "setting": "NCI-H1437; first compound 0.01 µM", "value": 0.536}, {"measurement": "relative viability", "setting": "NCI-H1437; first compound 0.03162 µM", "value": 0.533}, {"measurement": "relative viability", "setting": "NCI-H1437; first compound 0.1 µM", "value": 0.593}, {"measurement": "relative viability", "setting": "NCI-H1437; first compound 0.3162 µM", "value": 0.554}, {"measurement": "relative viability", "setting": "NCI-H1437; first compound 1 µM", "value": 0.472}, {"measurement": "relative viability", "setting": "HCC-44; first compound 0.01 µM", "value": 0.908}, {"measurement": "relative viability", "setting": "HCC-44; first compound 0.03162 µM", "value": 0.883}, {"measurement": "relative viability", "setting": "HCC-44; first compound 0.1 µM", "value": 1.08}, {"measurement": "relative viability", "setting": "HCC-44; first compound 0.3162 µM", "value": 1.03}, {"measurement": "relative viability", "setting": "HCC-44; first compound 1 µM", "value": 0.896}, {"measurement": "relative viability", "setting": "NCI-H1975; first compound 0.01 µM", "value": 0.442}, {"measurement": "relative viability", "setting": "NCI-H1975; first compound 0.03162 µM", "value": 0.375}, {"measurement": "relative viability", "setting": "NCI-H1975; first compound 0.1 µM", "value": 0.394}, {"measurement": "relative viability", "setting": "NCI-H1975; first compound 0.3162 µM", "value": 0.451}, {"measurement": "relative viability", "setting": "NCI-H1975; first compound 1 µM", "value": 0.365}]}]}
